Results: US8143447B2, “Treatment of cancer” (BiPar Sciences, Inc., priority 2006, dated 2012)
“Also recorded” adds a separate entry of the source.

Key:
[1] = tested on: KB 3-1 cells; assay: Colony-forming assay, KB 3-1 cells; format: cell-based, human; conditions: KB 3-1 (MDR1 normal) cells, 0-100 μM, 14 days
Excerpt: (§1) KB-V1 is a vinblastine resistant clone of KB-3-1 human carcinoma cell line (Fojo, A. T., J Whang-Peng, M. M. Gottesman, and I. Pastan. 1985. Amplification of DNA sequences in human multidrugresistant KB carcinoma cells. Proc. Natl. Acad. Sci. USA 82:7661-7665., Shen, D.-W., C. Cardarelli, J lwang, M. Cornwell, N. Richert, S. Ishii, I. Pastan, and M. M. Gottesman. 1986. Multiple drug-resistant human KB carcinoma cells independently selected for high-level resistance to colchicine, Adriamycin, or vinblastine show changes in expression of specific proteins. J. Biol. Chem. 261:7762-7770). Cells were propagated in Eagle minimal essential medium with 10% fetal bovine serum.
(§2) Cells were trypsinized, counted, and diluted to a final concentration of 10^6 cells/ml. Colony-forming assays were performed by plating an appropriate number of cells into culture dishes in triplicates and treated with 0-100 μM of a compound. After 14 days, cells were fixed and stained with 1% crystal violet, and colonies were counted.

[2] = BA metabolite identification by LC/MS/MS from canine plasma; format: in vivo, dog; conditions: canine plasma after BA administration; equivalents measured using BSI-201 in the 1 μg/ml spike sample as reference standard
Experimental: (§3) Plasma samples were obtained from dog, rat and mouse studies, in which animals were administered 4-iodo-3-nitrobenzamide (BA). Plasma and tumor samples were prepared for HPLC injection by precipitating plasma (50 μl) with 3× volumes (150 μl) of acetonitrile. Tissue samples were prepared for HPLC injection by adding 1 μl of acetonitrile per mg of tissue, then homogenizing with an electric homogenizer. Following centrifugation, 150 μl of each supernatant was evaporated to dryness, reconstituted in 50 μl of 0.2% formic acid in water and analyzed by chromatography and mass spectrometry techniques (LC/MS/MS conditions). LC/MS/MS conditions are: HPLC (Shimadzu VP System); Mobile Phase: 0.2% formic acid in water (A) and 0.18% formic acid in methanol (B); Column: 1×50 mm Thermo BetaBasic C18 column; Injection volume: 25 μL; Gradient: 0-60% B in 30 minutes; Flow Rate: 100 μL/min; Mass Spectrometer: Applied Biosystems/MDS SCIEX Q-STAR; Interface: IonSpray split at 1/10; Parent Ion Scan: TOF Positive from 200-900 amu; Product Ion Scan: TOF Product Ion from 60-900 amu of most intense Ion in Parent Ion Scan; TOF calibration: Externally calibrated using Renin Substrate. Results of metabolite identification from dog and mouse plasma are depicted in Tables 1-3, as follows: […]

[3] = tested on: HTC116 cells; assay: Cell-cycle analysis (DNA content, flow cytometry); format: cell-based; conditions: treated for 19 hours
Experimental: HCT116 and Hela cells were obtained from ATCC. For DNA content analysis, 2×10^5 cells were washed twice with PBS and fixed in 70% ethanol. Cells were treated with 100 units/mL RNase A for 20 minutes at 37° C., resuspended in cold PBS containing Alexa Fluor® 405 fluorescent stain (Invitrogen) according to the manufacturer's protocol. Cells were analyzed by flow cytometry. FIG. 1 illustrates (FACS dot plots and histograms) cell-cycle analysis in HTC116 cells treated with PARP-1 inhibitor (4-iodo-3-nitrobenzamide or “BA”) for 19 hours.

[4] = BA metabolite identification by LC/MS/MS from canine plasma and red blood cells; format: in vivo, dog; conditions: equivalents by 270 nm UV peak area of BSI-201 in the 5 μg/ml spike sample
Experimental: as §3

[5] = tested on: KB V-1 cells; assay: Colony-forming assay, KB V-1 cells (MDR1 overexpressing); format: cell-based, human; conditions: KB V-1 (MDR1 overexpressing, vinblastine resistant) cells, 0-100 μM, 14 days
Excerpt: as §1, §2

[6] = BA metabolite identification by LC/MS/MS from murine plasma; format: in vivo, mouse; conditions: murine plasma after BA administration; equivalents measured using BSI-201 in the 1 μg/ml spike sample as reference standard
Experimental: as §3

[7] = tested on: established adult tumor lines s.c. implanted in nude mice; conditions: administered p.o.; cited from earlier work
[8] = tested on: adult tumor cell lines; conditions: a number of adult tumor cell lines; cited from earlier work

Row | SMILES | number of cell colonies / cell death [1] | Approximate [2] [ng/mL] | S phase cell cycle ([3]; compared to control) | number of cells in the G1 phase ([3]; control 18.6%) [%] | Approximate μg/ml Plasma ([4]; canine plasma) [µg/mL] | Approximate μg/ml RBC ([4]; canine red blood cells) [µg/mL] | number of cell colonies / cell death [5] | Approximate [6] [ng/mL] | growth of established adult tumor lines [7] | toxicities [7] | IC50 of tumor cell growth inhibition [8]
1 | NC(=O)c1ccc(I)c([N+](=O)[O-])c1 [BA, 4-iodo-3-nitrobenzamide] | dose-dependent cell death; also recorded: reduces the number of cell colonies in a dose-dependant manner | ~1.9 | decrease | 48.6 | ~2.1 | ~1.6 | dose-dependent cell death; also recorded: reduces the number of cell colonies in a dose-dependant manner | ~3.7 |  |  | 
2 | NC(=O)c1ccc(I)c(O)c1 [M4 (263 m/z)] |  | ~12 |  |  |  |  |  | ~56 |  |  | 
3 | Nc1ccccc1NC(=O)c1ccc(CNC(=O)OCc2cccnc2)cc1 [MS-27-275] |  |  |  |  |  |  |  |  | inhibited the growth | minimal toxicities | submicromolar range
